Holding throughout (assay type): functional
Experiment [1] addresses Human immunodeficiency virus type 1 reverse transcriptase (Human immunodeficiency virus 1) (UniProt Q72547). Briefly: Rate of incorporation into a DNA primer directed by a DNA template at the active site of HIV-1 reverse transcriptase.
The target is the same in experiment [2]. Briefly: Efficiency of incorporation into a DNA primer directed by a DNA template at the active site of HIV-1 reverse transcriptase.
The target of experiment [3] is Human immunodeficiency virus type 1 reverse transcriptase (Human immunodeficiency virus 1, UniProt Q72547). Briefly: Equilibrium binding constant at the active site of HIV-1 reverse transcriptase.

Data on 5 compounds can be found in ChEMBL document CHEMBL1146837, “Effects of fluorine substitution of cytosine analogues on the binding affinity to HIV-1 reverse transcriptase” (Bioorg Med Chem Lett, 2004).

Regarding `Nc1nc(=O)n([C@@H]2C=C[C@H](COP(=O)(O)OP(=O)(O)OP(=O)(O)O)O2)cc1F`, the Kpol in experiment [1] came out at 0.95 s⁻¹. The Efficiency in experiment [2] was 0.031 µM⁻¹ s⁻¹. Besides, in experiment [3], the Kd came out at 31 µM.
`Nc1nc(=O)n([C@@H]2CS[C@H](COP(=O)(O)OP(=O)(O)OP(=O)(O)O)O2)cc1F` [EMTRICITABINE 5'-TRIPHOSPHATE] displayed a Kpol in experiment [1] of 0.039 s⁻¹. For the same compound, in experiment [2], the Efficiency turned out to be 0.0033 µM⁻¹ s⁻¹. The compound further came in with a Kd in experiment [3] of 12 µM.
In turn, `Nc1ccn([C@@H]2CS[C@H](COP(=O)(O)OP(=O)(O)OP(=O)(O)O)O2)c(=O)n1` [LAMIVUDINE TRIPHOSPHATE] gave a Kpol in experiment [1] of 0.019 s⁻¹. The compound further showed an Efficiency in experiment [2] of 0.0013 µM⁻¹ s⁻¹. Moreover, the Kd in experiment [3] turned out to be 15 µM.
The corresponding values for `Nc1nc(=O)n([C@H]2O[C@@H](COP(=O)(O)OP(=O)(O)OP(=O)(O)O)C=C2F)cc1F` are 0.15 s⁻¹, 0.0023 µM⁻¹ s⁻¹ and 64 µM.
The corresponding values for `Nc1ccn([C@@H]2C=C[C@H](COP(=O)(O)OP(=O)(O)OP(=O)(O)O)O2)c(=O)n1` are 0.16 s⁻¹, 0.0086 µM⁻¹ s⁻¹ and 18 µM.
